Key:
Assay type in all cases: cell-based, Drosophila
[1] = tested on: HSF; test: HSF DNA binding activity, gel mobility shift assay (EMSA) with whole cell extracts and labeled HSE; details: for optimal concentration for induction of HSF DNA binding: treated 60 minutes, no heat shock; for stimulation of HSF DNA binding: without cellular stress
Procedure: FIG. 14. Induction of HSF DNA binding and hsp70 protein synthesis by ibuprofen and salicylic acid. The concentrations of ibuprofen and salicylic acid are shown as mM. Both DNA binding and Hsp70 protein synthesis follow the same optimal concentrations. The cells were treated for 60 minutes with the indicated drug and whole cell extracts prepared for analysis.
The effect of the KDs on DNA binding was first examined using the gel mobility shift assay. Briefly cells were treated with RNAi or transfected with the indicated DNA constructs and harvested four days later. Whole cell extracts were prepared and DNA binding carried out with a labeled heat shock element (HSE) double stranded oligonucleotide. Lanes 1 and 2 represent control cells, non-shocked and heat shocked, respectively. […] Lanes 3 and 4 contain extract derived from the Hsc3p KD cells.

[2] = tested on: Hsp70; test: Induction of Hsp70 protein synthesis in cultured cells; details: for optimal concentration for induction of Hsp70 protein synthesis: treated 60 minutes, no heat shock; for stimulation of Hsp70 protein synthesis: without cellular stress
Procedure: FIG. 14. Induction of HSF DNA binding and hsp70 protein synthesis by ibuprofen and salicylic acid. The concentrations of ibuprofen and salicylic acid are shown as mM. Both DNA binding and Hsp70 protein synthesis follow the same optimal concentrations. The cells were treated for 60 minutes with the indicated drug and whole cell extracts prepared for analysis. […] The goal here is to activate HSF to produce adequate levels of Hsp70 that can provide neuroprotective functions to the human brain. To begin these studies, two common non-steroidal anti-inflammatory drugs (NSAIDs), ibuprofen and salicylic acid, were tested. These molecules have been previously shown to stimulate HSF DNA binding in mammalian and Drosophila cells. The findings presented here differ from those previously published. As reported here, both salicylic acid and ibuprofen can stimulate HSF DNA binding, Hsp70 transcription and Hsp70 protein synthesis. […] It is clear that both DNA binding and Hsp70 protein synthesis have identical optimums.

[3] = tested on: Hsp70; test: Hsp70 transcription, primer-extension analysis of isolated RNA; details: for stimulation of Hsp70 transcription: without cellular stress
Procedure: FIG. 15. Time course for Hsp70 transcription induction by 3 mM salicylic acid. Cells were treated with 3 mM salicylic acid and RNA was isolated at the indicated times.
Control cells (lanes 1 and 2) show activation of Hsp70 transcription as a result of a ten-minute heat shock. […] Lanes 3 and 4 contain RNA from KD cells with RNAi against Hsc4p. […] When Hsc4p levels are reduced, HSF is able to bind DNA and activate transcription without heat shock.

[4] = Drosophila cultured cells, 60 minutes

| Compound | optimal concentration for induction of HSF DNA binding ([1]; Drosophila cultured cells) | stimulation of HSF DNA binding [1] | optimal concentration for induction of Hsp70 protein synthesis ([2]; Drosophila cultured cells) | stimulation of Hsp70 protein synthesis [2] | stimulation of Hsp70 transcription [3] | low concentration that still functions for HSF DNA binding [1, 4] [mM] | low concentration that still functions for Hsp70 protein synthesis [2, 4] [mM] | time course of Hsp70 transcription induction ([3]; 3 mM salicylic acid) |
| --- | --- | --- | --- | --- | --- | --- | --- | --- |
| CC(C)Cc1ccc(C(C)C(=O)O)cc1 (stereo not shown) [ibuprofen] | 3 to 10 mM | can stimulate | 3 to 10 mM | can stimulate | can stimulate | – | – | – |
| O=C(O)c1ccccc1O [salicylic acid] | quite broad | can stimulate | quite broad | can stimulate | can stimulate | 1 | 1 | induced rapidly |

— patent publication US20090075948A1, “COMPOSITIONS AND METHODS FOR REGULATING CELLULAR PROTECTION” (California Institute of Technology, priority 2007, published 2009)
